Values of other authors, collected in patent US6072029A, “Derivatives of human α1 -antitrypsin and process for their preparation” (priority 1984, dated 2000).
Where two headings read alike, the source gives them in different places.

Test system: thrombin

α1 -AT: natural human α1-antitrypsin, serine protease inhibitor
inactivation of thrombin (increasing molar excess of α1-antitrypsin): completely inhibited
inactivation of thrombin (molar ratio of 1:1): weak and incomplete
